Measurements as given in ChEMBL document CHEMBL1201862, “PubChem BioAssay data set” (2004).
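Interpolation was linear, between the two tested concentrations surrounding the appropriate level; five concentrations were tested over 48 hours in 96-well plates. GI50 marks 50% less growth.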 Active and inactive are the calls of the source. Cut-off read from the data, not from the text of the source: active = GI50 up to about 1.1 µM and inactive = higher.

What was measured:
Assay in all cases: NCI-60 cell line screen, 48 h
SW-620 = tested on: SW-620
XF498 = tested on: XF498
HCC 2998 = tested on: HCC 2998
IGROV-1 = tested on: IGROV-1
DLD-1 = tested on: DLD-1
M14 = tested on: M14
DMS-273 = tested on: DMS-273
KM-20L2 = tested on: KM-20L2
HOP-92 = tested on: HOP-92
CAKI-1 = tested on: CAKI-1
DMS-114 = tested on: DMS-114
OVCAR-4 = tested on: OVCAR-4
A498 = tested on: A498
HCT-116 = tested on: HCT-116
UO-31 = tested on: UO-31
A549 = tested on: A549
RXF 631 = tested on: RXF 631
SNB-78 = tested on: SNB-78
LOX IMVI = tested on: LOX IMVI
SNB-75 = tested on: SNB-75
U-251 = tested on: U-251
MOLT-4 = tested on: MOLT-4
HCT-15 = tested on: HCT-15
COLO 205 = tested on: COLO 205
NCI-H522 = tested on: NCI-H522
RPMI-8226 = tested on: RPMI-8226
RXF 393 = tested on: RXF 393
SK-MEL-28 = tested on: SK-MEL-28
SF-268 = tested on: SF-268
UACC-257 = tested on: UACC-257
NCI-H460 = tested on: NCI-H460
K562 = tested on: K562
HL-60 = tested on: HL-60
SK-OV-3 = tested on: SK-OV-3
Malme-3M = tested on: Malme-3M
ACHN = tested on: ACHN
UACC-62 = tested on: UACC-62
786-0 = tested on: 786-0
OVCAR-5 = tested on: OVCAR-5
KM12 = tested on: KM12
SF-295 = tested on: SF-295
M19-MEL = tested on: M19-MEL
SF-539 = tested on: SF-539
LXFL 529 = tested on: LXFL 529
OVCAR-8 = tested on: OVCAR-8
HOP-62 = tested on: HOP-62
SN12C = tested on: SN12C
HT-29 = tested on: HT-29
CCRF-CEM = tested on: CCRF-CEM
HOP-18 = tested on: HOP-18
EKVX = tested on: EKVX
NCI-H23 = tested on: NCI-H23
NCI-H226 = tested on: NCI-H226
OVCAR-3 = tested on: OVCAR-3
SNB-19 = tested on: SNB-19
SR = tested on: SR
SK-MEL-5 = tested on: SK-MEL-5
SK-MEL-2 = tested on: SK-MEL-2
TK-10 = tested on: TK-10

## Cc1ccc(N(C(=O)CC(=O)NN)C(=O)c2ccccc2Cl)cc1
SW-620
  GI50: > 100 µM (inactive)
XF498
  GI50: > 100 µM (inactive)
HCC 2998
  GI50: > 100 µM (inactive)
IGROV-1
  GI50: > 100 µM (inactive)
DLD-1
  GI50: > 100 µM (inactive)
M14
  GI50: > 100 µM (inactive)
DMS-273
  GI50: > 100 µM (inactive)
KM-20L2
  GI50: > 100 µM (inactive)
HOP-92
  GI50: > 100 µM (inactive)
CAKI-1
  GI50: > 100 µM (inactive)
DMS-114
  GI50: > 100 µM (inactive)
OVCAR-4
  GI50: > 100 µM (inactive)
A498
  GI50: > 100 µM (inactive)
HCT-116
  GI50: > 100 µM (inactive)
UO-31
  GI50: > 100 µM (inactive)
A549
  GI50: > 100 µM (inactive)
RXF 631
  GI50: > 100 µM (inactive)
SNB-78
  GI50: > 100 µM (inactive)
LOX IMVI
  GI50: > 100 µM (inactive)
SNB-75
  GI50: > 100 µM (inactive)
U-251
  GI50: > 100 µM (inactive)
MOLT-4
  GI50: > 100 µM (inactive)
HCT-15
  GI50: > 100 µM
COLO 205
  GI50: > 100 µM (inactive)
NCI-H522
  GI50: > 100 µM (inactive)
RPMI-8226
  GI50: > 100 µM (inactive)
RXF 393
  GI50: > 100 µM (inactive)
SK-MEL-28
  GI50: > 100 µM (inactive)
SF-268
  GI50: > 100 µM (inactive)
UACC-257
  GI50: > 100 µM (inactive)
NCI-H460
  GI50: > 100 µM (inactive)
K562
  GI50: > 100 µM (inactive)
HL-60
  GI50: > 100 µM (inactive)
SK-OV-3
  GI50: > 100 µM (inactive)
Malme-3M
  GI50: > 100 µM (inactive)
ACHN
  GI50: > 100 µM (inactive)
UACC-62
  GI50: > 100 µM (inactive)
786-0
  GI50: > 100 µM (inactive)
OVCAR-5
  GI50: > 100 µM (inactive)
KM12
  GI50: > 100 µM (inactive)
SF-295
  GI50: > 100 µM (inactive)
M19-MEL
  GI50: > 100 µM (inactive)
SF-539
  GI50: > 100 µM (inactive)
LXFL 529
  GI50: > 100 µM (inactive)
OVCAR-8
  GI50: > 100 µM (inactive)
HOP-62
  GI50: > 100 µM (inactive)
SN12C
  GI50: > 100 µM (inactive)
HT-29
  GI50: > 100 µM (inactive)
CCRF-CEM
  GI50: > 100 µM (inactive)
HOP-18
  GI50: > 100 µM (inactive)
EKVX
  GI50: > 100 µM (inactive)
NCI-H23
  GI50: > 100 µM (inactive)
NCI-H226
  GI50: > 100 µM (inactive)
OVCAR-3
  GI50: > 100 µM (inactive)
SNB-19
  GI50: > 100 µM (inactive)

## COC(=O)C(Cc1nc2ccc(Cl)cc2nc1O)C(=O)C(=O)Nc1ccccc1[N+](=O)[O-] (stereo not drawn)
SW-620
  GI50: > 100 µM (inactive)
XF498
  GI50: > 100 µM (inactive)
HCC 2998
  GI50: > 100 µM (inactive)
IGROV-1
  GI50: > 100 µM (inactive)
DLD-1
  GI50: > 100 µM (inactive)
M14
  GI50: > 100 µM (inactive)
DMS-273
  GI50: > 100 µM (inactive)
KM-20L2
  GI50: > 100 µM (inactive)
CAKI-1
  GI50: > 100 µM (inactive)
DMS-114
  GI50: > 100 µM (inactive)
OVCAR-4
  GI50: > 100 µM (inactive)
A498
  GI50: > 100 µM (inactive)
HCT-116
  GI50: > 100 µM (inactive)
SR
  GI50: > 100 µM (inactive)
UO-31
  GI50: > 100 µM (inactive)
A549
  GI50: > 100 µM (inactive)
RXF 631
  GI50: > 100 µM (inactive)
SNB-78
  GI50: > 100 µM (inactive)
LOX IMVI
  GI50: > 100 µM (inactive)
SK-MEL-5
  GI50: > 100 µM (inactive)
SNB-75
  GI50: > 100 µM (inactive)
U-251
  GI50: > 100 µM (inactive)
MOLT-4
  GI50: > 100 µM (inactive)
HCT-15
  GI50: > 100 µM
COLO 205
  GI50: > 100 µM (inactive)
NCI-H522
  GI50: > 100 µM (inactive)
RPMI-8226
  GI50: > 100 µM (inactive)
RXF 393
  GI50: > 100 µM (inactive)
SK-MEL-28
  GI50: > 100 µM (inactive)
SF-268
  GI50: > 100 µM (inactive)
UACC-257
  GI50: > 100 µM (inactive)
SK-MEL-2
  GI50: > 100 µM (inactive)
NCI-H460
  GI50: > 100 µM (inactive)
K562
  GI50: > 100 µM (inactive)
HL-60
  GI50: > 100 µM (inactive)
SK-OV-3
  GI50: > 100 µM (inactive)
Malme-3M
  GI50: > 100 µM (inactive)
ACHN
  GI50: > 100 µM (inactive)
UACC-62
  GI50: > 100 µM (inactive)
786-0
  GI50: > 100 µM (inactive)
OVCAR-5
  GI50: > 100 µM (inactive)
KM12
  GI50: > 100 µM (inactive)
SF-295
  GI50: > 100 µM (inactive)
M19-MEL
  GI50: > 100 µM (inactive)
SF-539
  GI50: > 100 µM (inactive)
LXFL 529
  GI50: > 100 µM (inactive)
OVCAR-8
  GI50: > 100 µM (inactive)
HOP-62
  GI50: > 100 µM (inactive)
SN12C
  GI50: > 100 µM (inactive)
HT-29
  GI50: > 100 µM (inactive)
CCRF-CEM
  GI50: > 100 µM (inactive)
HOP-18
  GI50: 93.8 µM (inactive)
EKVX
  GI50: 7.8 µM (inactive)
NCI-H23
  GI50: > 100 µM (inactive)
NCI-H226
  GI50: > 100 µM (inactive)
OVCAR-3
  GI50: > 100 µM (inactive)
SNB-19
  GI50: > 100 µM (inactive)
TK-10
  GI50: > 100 µM (inactive)
